According to PMC5549482, “Activation of Endocannabinoid Receptor 2 as a Mechanism of Propofol Pretreatment-Induced Cardioprotection against Ischemia-Reperfusion Injury in Rats” (Oxidative Medicine and Cellular Longevity, 2017):

Target: T1, fatty acid amide hydrolase (FAAH) (Homo sapiens, UniProt O00519)
T1 construct: human recombinant FAAH
T1 sequence (O00519 1-579): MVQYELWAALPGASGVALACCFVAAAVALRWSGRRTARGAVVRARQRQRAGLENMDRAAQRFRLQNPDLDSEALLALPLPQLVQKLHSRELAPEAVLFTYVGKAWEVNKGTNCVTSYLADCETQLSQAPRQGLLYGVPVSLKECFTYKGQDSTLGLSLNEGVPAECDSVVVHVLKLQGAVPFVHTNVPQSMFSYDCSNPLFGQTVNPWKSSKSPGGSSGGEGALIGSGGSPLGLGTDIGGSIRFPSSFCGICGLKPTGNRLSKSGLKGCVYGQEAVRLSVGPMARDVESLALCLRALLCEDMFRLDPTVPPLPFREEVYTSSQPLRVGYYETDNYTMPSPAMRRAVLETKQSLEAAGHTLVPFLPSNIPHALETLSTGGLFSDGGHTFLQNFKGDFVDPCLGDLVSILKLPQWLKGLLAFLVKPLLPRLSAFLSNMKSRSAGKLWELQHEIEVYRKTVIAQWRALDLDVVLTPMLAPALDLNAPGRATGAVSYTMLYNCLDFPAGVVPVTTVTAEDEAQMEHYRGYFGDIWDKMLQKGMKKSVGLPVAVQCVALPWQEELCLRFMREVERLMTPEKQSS
Assay: fluorescence FAAH inhibitor screening kit (Cayman), AMC arachidonoyl amide substrate, […] propofol
Assay type: biochemical

## CC(C)c1cccc(C(C)C)c1O [propofol]
  IC50: ~28 µM
